Results taken from patent publication US9844550B2, “Phtalazinone derivatives and manufacturing process thereof” (ILDONG PHARM CO., LTD., priority 2013, dated 2017).

system: MDA-MB-436 breast cancer cell line; test: Cell viability assay (MDA-MB-436); format: cell-based; conditions: Homo sapiens, 144 h; MDA-MB-436 cells, treated 6 days
Procedure: 2. Cell Viability Assay (MDA-MB-436)
Cell viability assay was performed by using MDA-MB-436 cell line to measure cytotoxicity of compounds in the present invention. MDA-MB-436 breast cancer cell line was seeded into 96-well plates at 37° C. under 5% CO2 atmosphere using DMEM/F12 (Gibco) containing 10% FBS (Hyclone). After 24 hr incubation, cells were treated with the invented compounds at various concentrations for 6 days. The medium was changed every 3 day. 6 days later, A fluorescence reagent was used to determine the IC50 values.

Row | Compound | IC50
1 | CCN(CC1CN(C(=O)c2cc(Cc3n[nH]c(=O)c4ccccc34)ccc2F)C1)C1CC1 [Compound I-155, 4-(3-(3-((cyclopropyl(ethyl)amino)methyl)azetidine-1-carbonyl)-4-fluorobenzyl)phthalazin-1(2H)-one] | 50 to 300 nM
2 | O=C(c1cc(Cc2n[nH]c(=O)c3ccccc23)ccc1F)N1CC(NCc2ccccc2)C1 [Compound I-133, 4-(3-(3-(benzylamino)azetidine-1-carbonyl)-4-fluorobenzyl)phthalazin-1(2H)-one] | 50 to 300 nM
3 | CCOC(=O)C1=C(NC2CN(C(=O)c3cc(Cc4n[nH]c(=O)c5ccccc45)ccc3F)C2)CCC1 [Compound I-39, ethyl 2-((1-(2-fluoro-5-((4-oxo-3,4-dihydrophthalazin-1-yl)methyl)benzoyl)azetidin-3-yl)amino)cyclopent-1-enecarboxylate] | 300 to 1000 nM
4 | O=C(c1cc(Cc2n[nH]c(=O)c3ccccc23)ccc1F)N1CC(Nc2ccccc2)C1 [Compound I-79, 4-(4-fluoro-3-(3-(phenylamino)azetidine-1-carbonyl)benzyl)phthalazin-1(2H)-one] | 50 to 300 nM
5 | CN(CC1CN(C(=O)c2cc(Cc3n[nH]c(=O)c4ccccc34)ccc2F)C1)C1CC1 [Compound I-154, 4-(3-(3-((cyclopropyl(methyl)amino)methyl)azetidine-1-carbonyl)-4-fluorobenzyl)phthalazin-1(2H)-one] | 300 to 1000 nM
6 | CN1CCN(C2CN(C(=O)c3cc(Cc4n[nH]c(=O)c5ccccc45)ccc3F)C2)CC1 [Compound I-78, 4-(4-fluoro-3-(3-(4-methylpiperazin-1-yl)azetidine-1-carbonyl)benzyl)phthalazin-1(2H)-one] | 300 to 1000 nM
7 | CC1(C)CCCC1NC1CN(C(=O)c2cc(Cc3n[nH]c(=O)c4ccccc34)ccc2F)C1 (stereo not shown) [Compound I-38, 4-(3-(3-((2,2-dimethylcyclopentyl)amino)azetidine-1-carbonyl)-4-fluorobenzyl)phthalazin-1(2H)-one] | 5 to 50 nM
8 | CC1(C)NC(=O)N(C2CN(C(=O)c3cc(Cc4n[nH]c(=O)c5ccccc45)ccc3F)C2)C1=O [Compound I-14, 3-(1-(2-fluoro-5-((4-oxo-3,4-dihydrophthalazin-1-yl)methyl)benzoyl)azetidin-3-yl)-5,5-dimethylimidazolidine-2,4-dione] | 50 to 300 nM
9 | CN(c1cccnn1)[C@H]1CCN(C(=O)c2cc(Cc3n[nH]c(=O)c4ccccc34)ccc2F)C1 [Compound I-113, (S)-4-(4-fluoro-3-(3-(methyl(pyridazin-3-yl)amino)pyrrolidine-1-carbonyl)benzyl)phthalazin-1(2H)-one] | 300 to 1000 nM
10 | O=C(c1cc(Cc2n[nH]c(=O)c3ccccc23)ccc1F)N1CC(NCCC2CC2)C1 [Compound I-58, 4-(3-(3-((2-cyclopropylethyl)amino)azetidine-1-carbonyl)-4-fluorobenzyl)phthalazin-1(2H)-one] | 5 to 50 nM
11 | O=C(c1cc(Cc2n[nH]c(=O)c3ccccc23)ccc1F)N1CC(C(=O)N2CCC(F)(F)C2)C1 [Compound I-19, 4-(3-(3-(3,3-difluoropyrrolidine-1-carbonyl)azetidine-1-carbonyl)-4-fluorobenzyl)phthalazin-1(2H)-one] | 50 to 300 nM
12 | C#Cc1cnc(N[C@@H]2CCN(C(=O)c3cc(Cc4n[nH]c(=O)c5ccccc45)ccc3F)C2)nc1 [Compound I-125, (R)-4-(3-(3-((5-ethynylpyrimidin-2-yl)amino)pyrrolidine-1-carbonyl)-4-fluorobenzyl)phthalazin-1(2H)-one] | ≤ 5 nM
13 | CN(c1ccc(Cl)nn1)[C@H]1CCN(C(=O)c2cc(Cc3n[nH]c(=O)c4ccccc34)ccc2F)C1 [Compound I-111, (S)-4-(3-(3-((6-chloropyridazin-3-yl)(methyl)amino)pyrrolidine-1-carbonyl)-4-fluorobenzyl)phthalazin-1(2H)-one] | 300 to 1000 nM
14 | Cc1ccc(N[C@@H]2CCN(C(=O)c3cc(Cc4n[nH]c(=O)c5ccccc45)ccc3F)C2)cc1 [Compound I-138, (R)-4-(4-fluoro-3-(3-(p-tolylamino)pyrrolidine-1-carbonyl)benzyl)phthalazin-1(2H)-one] | 300 to 1000 nM
15 | CN(c1ccc(Cl)nn1)C1CN(C(=O)c2cc(Cc3n[nH]c(=O)c4ccccc34)ccc2F)C1 [Compound I-115, 4-(3-(3-((6-chloropyridazin-3-yl)(methyl)amino)azetidine-1-carbonyl)-4-fluorobenzyl)phthalazin-1(2H)-one] | 300 to 1000 nM

The next lines start with the values.

Row | IC50 | Compound
16 | ≤ 5 nM | CC(C)CCNC1CN(C(=O)c2cc(Cc3n[nH]c(=O)c4ccccc34)ccc2F)C1 [Compound I-52, 4-(4-fluoro-3-(3-(isopentylamino)azetidine-1-carbonyl)benzyl)phthalazin-1(2H)-one]
17 | 50 to 300 nM | O=C(c1cc(Cc2n[nH]c(=O)c3ccccc23)ccc1F)N1CC(NC2(CO)CC2)C1 [Compound I-84, 4-(4-fluoro-3-(3-((1-(hydroxymethyl)cyclopropyl)amino)azetidine-1-carbonyl)benzyl)phthalazin-1(2H)-one]
18 | 5 to 50 nM | C[C@@H](NC1CN(C(=O)c2cc(Cc3n[nH]c(=O)c4ccccc34)ccc2F)C1)C(C)(C)C [Compound I-86, (R)-4-(3-(3-((3,3-dimethylbutan-2-yl)amino)azetidine-1-carbonyl)-4-fluorobenzyl)phthalazin-1(2H)-one]
19 | 300 to 1000 nM | CC(C)C(C#N)NC1CN(C(=O)c2cc(Cc3n[nH]c(=O)c4ccccc34)ccc2F)C1 (stereo not shown) [Compound I-102, 2-((1-(2-fluoro-5-((4-oxo-3,4-dihydrophthalazin-1-yl)methyl)benzoyl)azetidin-3-yl)amino)-3-methylbutanenitrile]
20 | 50 to 300 nM | CN(C1CC1)C1CN(C(=O)c2cc(Cc3n[nH]c(=O)c4ccccc34)ccc2F)C1 [Compound I-69, 4-(3-(3-(cyclopropyl(methyl)amino)azetidine-1-carbonyl)-4-fluorobenzyl)phthalazin-1(2H)-one]
21 | 50 to 300 nM | C#CCNC1CN(C(=O)c2cc(Cc3n[nH]c(=O)c4ccccc34)ccc2F)C1 [Compound I-81, 4-(4-fluoro-3-(3-(prop-2-yn-1-ylamino)azetidine-1-carbonyl)benzyl)phthalazin-1(2H)-one]
22 | 300 to 1000 nM | CCC(C#N)NC1CN(C(=O)c2cc(Cc3n[nH]c(=O)c4ccccc34)ccc2F)C1 (stereo not shown) [Compound I-101, 2-((1-(2-fluoro-5-((4-oxo-3,4-dihydrophthalazin-1-yl)methyl)benzoyl)azetidin-3-yl)amino)butanenitrile]
23 | 5 to 50 nM | CC(C)[C@H](C)NC1CN(C(=O)c2cc(Cc3n[nH]c(=O)c4ccccc34)ccc2F)C1 [Compound I-89, (S)-4-(4-fluoro-3-(3-((3-methylbutan-2-yl)amino)azetidine-1-carbonyl)benzyl)phthalazin-1(2H)-one]
24 | ≤ 5 nM | CC(C)NCC1CN(C(=O)c2cc(Cc3n[nH]c(=O)c4ccccc34)ccc2F)C1 [Compound I-144, 4-(4-fluoro-3-(3-((isopropylamino)methyl)azetidine-1-carbonyl)benzyl)phthalazin-1(2H)-one]
25 | 5 to 50 nM | O=C(c1cc(Cc2n[nH]c(=O)c3ccccc23)ccc1F)N1CC(NC(C2CC2)C2CC2)C1 [Compound I-45, 4-(3-(3-((dicyclopropylmethyl)amino)azetidine-1-carbonyl)-4-fluorobenzyl)phthalazin-1(2H)-one]
